Test results from patent US9340590B2 (priority 2011, dated 2016).
Read-outs that look alike come from different tables or passages of the source. Positions of bridges follow the written chain, without caps; N, C: chain ends. Non-standard residues stand in square brackets, D forms with d. Residues, ends and D or L forms follow the SMILES beside them. 1Nal = N[C@@H](Cc1cccc2ccccc12)C(=O)O

Target: hNav1.7 (Homo sapiens, UniProt Q15858)
Experiment: cell-based
Format: cell-based
Settings: read-out: IWQ Use Nav1.7

Sequence of hNav1.7 (Q15858 whole entry, looked up): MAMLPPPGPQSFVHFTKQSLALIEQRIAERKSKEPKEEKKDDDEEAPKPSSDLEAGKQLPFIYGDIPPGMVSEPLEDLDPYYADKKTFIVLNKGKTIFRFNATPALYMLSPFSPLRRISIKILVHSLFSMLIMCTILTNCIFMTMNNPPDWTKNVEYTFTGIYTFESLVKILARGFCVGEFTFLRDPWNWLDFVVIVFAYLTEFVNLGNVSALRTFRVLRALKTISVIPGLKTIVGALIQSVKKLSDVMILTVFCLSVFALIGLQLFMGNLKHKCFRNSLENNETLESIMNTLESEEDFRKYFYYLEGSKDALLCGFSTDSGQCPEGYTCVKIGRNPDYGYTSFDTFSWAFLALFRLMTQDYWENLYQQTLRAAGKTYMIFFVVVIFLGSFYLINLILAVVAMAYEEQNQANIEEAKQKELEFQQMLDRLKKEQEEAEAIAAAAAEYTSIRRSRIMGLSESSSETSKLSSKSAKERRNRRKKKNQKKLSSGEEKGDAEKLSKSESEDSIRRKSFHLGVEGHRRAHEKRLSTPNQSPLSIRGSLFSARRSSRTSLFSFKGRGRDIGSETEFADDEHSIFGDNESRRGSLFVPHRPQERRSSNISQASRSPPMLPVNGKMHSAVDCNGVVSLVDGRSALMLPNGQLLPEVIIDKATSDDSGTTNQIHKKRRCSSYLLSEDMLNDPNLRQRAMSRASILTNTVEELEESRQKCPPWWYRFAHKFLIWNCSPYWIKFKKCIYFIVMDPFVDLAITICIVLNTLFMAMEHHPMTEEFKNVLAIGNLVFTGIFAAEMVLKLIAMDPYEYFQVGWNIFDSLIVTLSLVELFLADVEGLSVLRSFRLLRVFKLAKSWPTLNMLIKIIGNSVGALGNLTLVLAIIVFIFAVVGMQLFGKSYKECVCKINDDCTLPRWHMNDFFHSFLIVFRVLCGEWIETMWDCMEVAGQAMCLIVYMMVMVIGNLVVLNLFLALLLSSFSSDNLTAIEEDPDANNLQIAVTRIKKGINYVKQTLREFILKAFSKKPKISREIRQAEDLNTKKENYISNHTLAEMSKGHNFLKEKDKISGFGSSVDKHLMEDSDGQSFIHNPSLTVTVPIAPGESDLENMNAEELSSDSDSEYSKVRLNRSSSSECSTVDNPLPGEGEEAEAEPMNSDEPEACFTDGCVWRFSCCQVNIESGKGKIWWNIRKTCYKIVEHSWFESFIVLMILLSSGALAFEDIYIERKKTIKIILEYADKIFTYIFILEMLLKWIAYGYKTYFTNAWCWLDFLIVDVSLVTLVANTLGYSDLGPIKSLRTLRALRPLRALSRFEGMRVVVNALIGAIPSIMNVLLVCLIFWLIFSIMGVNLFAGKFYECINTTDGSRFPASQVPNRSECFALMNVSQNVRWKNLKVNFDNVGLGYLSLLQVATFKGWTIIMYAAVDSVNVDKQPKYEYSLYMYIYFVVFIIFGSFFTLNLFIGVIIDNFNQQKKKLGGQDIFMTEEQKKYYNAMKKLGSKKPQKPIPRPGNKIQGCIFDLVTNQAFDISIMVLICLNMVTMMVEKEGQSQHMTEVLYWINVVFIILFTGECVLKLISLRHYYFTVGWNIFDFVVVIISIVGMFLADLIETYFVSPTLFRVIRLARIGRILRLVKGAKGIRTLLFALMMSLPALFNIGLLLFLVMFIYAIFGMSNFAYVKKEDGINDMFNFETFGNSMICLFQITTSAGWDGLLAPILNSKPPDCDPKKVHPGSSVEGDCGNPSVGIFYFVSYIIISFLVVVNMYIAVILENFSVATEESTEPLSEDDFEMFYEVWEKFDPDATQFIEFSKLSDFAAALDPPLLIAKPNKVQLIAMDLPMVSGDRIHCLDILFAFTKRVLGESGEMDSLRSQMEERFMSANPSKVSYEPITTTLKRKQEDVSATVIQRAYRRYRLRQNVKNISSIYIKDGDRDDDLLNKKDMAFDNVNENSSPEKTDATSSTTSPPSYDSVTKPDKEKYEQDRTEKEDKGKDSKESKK

With `CC[C@H](C)[C@@H]1NC(=O)[C@@H]2CSSC[C@@H]3NC(=O)[C@H](C(C)C)NC(=O)[C@H](CC(C)C)NC(=O)[C@H](CC(N)=O)NC(=O)[C@H](CCCNC(=N)N)NC(=O)[C@H](CCCNC(=N)N)NC(=O)[C@H](CSSC[C@H](NC(=O)[C@@H](N)CC(=O)O)C(=O)N[C@@H](CC(C)C)C(=O)NCC(=O)N[C@@H](Cc4ccccc4)C(=O)N[C@@H](CCSC)C(=O)N[C@@H](CCCNC(=N)N)C(=O)N[C@@H](CCCCN)C(=O)N2)NC(=O)[C@H](CSSC[C@@H](C(=O)N[C@@H](CCCCN)C(=O)N[C@@H](Cc2ccc(O)cc2)C(=O)N[C@H](C(=O)N[C@@H](Cc2ccccc2)C(N)=O)C(C)C)NC(=O)[C@H](Cc2c[nH]c4ccccc24)NC(=O)[C@H](CCCCN)NC(=O)[C@H](Cc2c[nH]cn2)NC(=O)[C@H]([C@@H](C)O)NC(=O)[C@H](CCCNC(=N)N)NC(=O)[C@H](CO)NC3=O)NC(=O)[C@H](CCCCN)NC(=O)[C@H](CC(=O)O)NC(=O)[C@H](CC(N)=O)NC(=O)[C@H](CC(=O)O)NC(=O)[C@@H]2CCCN2C1=O` [compound 157] (H-DCLGFMRKCIPDNDKCCRRNLVCSRTHKWCKYVF-NH2; disulfide 2-17, 9-23, 16-30) the IC50 (IonWorks Quattro, Use) was 0.07 µM.
Work on `CC[C@H](C)[C@@H]1NC(=O)[C@@H]2CSSC[C@@H]3NC(=O)[C@H](CCCNC(=N)N)NC(=O)[C@H](CC(C)C)NC(=O)[C@H](CC(N)=O)NC(=O)[C@@H]4CCCN4C(=O)[C@H](CCCNC(=N)N)NC(=O)[C@H](CSSC[C@H](NC(=O)[C@@H](N)CC(=O)O)C(=O)N[C@@H](CC(C)C)C(=O)NCC(=O)N[C@@H](Cc4ccccc4)C(=O)N[C@@H](CCSC)C(=O)N[C@@H](CCCNC(=N)N)C(=O)N[C@@H](CCCCN)C(=O)N2)NC(=O)[C@H](CSSC[C@@H](C(=O)N[C@@H](CCCCN)C(=O)N[C@@H](Cc2ccc(O)cc2)C(=O)N[C@H](C(=O)N[C@@H](Cc2ccccc2)C(N)=O)C(C)C)NC(=O)[C@H](Cc2c[nH]c4ccccc24)NC(=O)[C@H](CCCCN)NC(=O)[C@H](Cc2c[nH]cn2)NC(=O)[C@H]([C@@H](C)O)NC(=O)[C@H](CCCNC(=N)N)NC(=O)[C@H](CO)NC3=O)NC(=O)[C@H](CCCCN)NC(=O)[C@H](CC(=O)O)NC(=O)[C@H](CC(N)=O)NC(=O)[C@H](CC(=O)O)NC(=O)[C@@H]2CCCN2C1=O` [compound 158] (H-DCLGFMRKCIPDNDKCCRPNLRCSRTHKWCKYVF-NH2; disulfide 2-17, 9-23, 16-30) yielded an IC50 (IonWorks Quattro, Use) of 0.06 µM.
With `CC[C@H](C)[C@@H]1NC(=O)[C@@H]2CSSC[C@@H]3NC(=O)[C@H](C(C)C)NC(=O)[C@H](CC(C)C)NC(=O)[C@H](CC(N)=O)NC(=O)[C@@H]4CCCN4C(=O)[C@H](CCCNC(=N)N)NC(=O)[C@H](CSSC[C@H](NC(=O)[C@@H](N)CC(=O)O)C(=O)N[C@@H](CC(C)C)C(=O)NCC(=O)N[C@@H](Cc4ccccc4)C(=O)N[C@@H](CCSC)C(=O)N[C@@H](CCCNC(=N)N)C(=O)N[C@@H](CCCCN)C(=O)N2)NC(=O)[C@H](CSSC[C@@H](C(=O)N[C@@H](CCCCN)C(=O)N[C@@H](CCCNC(=N)N)C(=O)N[C@H](C(=O)N[C@@H](Cc2ccccc2)C(N)=O)C(C)C)NC(=O)[C@H](Cc2c[nH]c4ccccc24)NC(=O)[C@H](CCCCN)NC(=O)[C@H](Cc2c[nH]cn2)NC(=O)[C@H]([C@@H](C)O)NC(=O)[C@H](CCCNC(=N)N)NC(=O)[C@H](CO)NC3=O)NC(=O)[C@H](CCCCN)NC(=O)[C@H](CC(=O)O)NC(=O)[C@H](CC(N)=O)NC(=O)[C@H](CC(=O)O)NC(=O)[C@@H]2CCCN2C1=O` [compound 159] (H-DCLGFMRKCIPDNDKCCRPNLVCSRTHKWCKRVF-NH2; disulfide 2-17, 9-23, 16-30) the IC50 was 1.02 µM.
`CC[C@H](C)[C@@H]1NC(=O)[C@@H]2CSSC[C@@H]3NC(=O)[C@H](C(C)C)NC(=O)[C@H](CC(C)C)NC(=O)[C@H](CC(N)=O)NC(=O)[C@@H]4CCCN4C(=O)[C@H](CCCNC(=N)N)NC(=O)[C@H](CSSC[C@H](NC(=O)[C@@H](N)CC(=O)O)C(=O)N[C@@H](CC(C)C)C(=O)NCC(=O)N[C@@H](Cc4ccccc4)C(=O)N[C@@H](CCSC)C(=O)N[C@@H](CCCNC(=N)N)C(=O)N[C@@H](CCCCN)C(=O)N2)NC(=O)[C@H](CSSC[C@@H](C(=O)N[C@@H](CCCCN)C(=O)N[C@@H](Cc2cccc4ccccc24)C(=O)N[C@H](C(=O)N[C@@H](Cc2ccccc2)C(N)=O)C(C)C)NC(=O)[C@H](Cc2c[nH]c4ccccc24)NC(=O)[C@H](CCCCN)NC(=O)[C@H](Cc2c[nH]cn2)NC(=O)[C@H]([C@@H](C)O)NC(=O)[C@H](CCCNC(=N)N)NC(=O)[C@H](CO)NC3=O)NC(=O)[C@H](CCCCN)NC(=O)[C@H](CC(=O)O)NC(=O)[C@H](CC(N)=O)NC(=O)[C@H](CC(=O)O)NC(=O)[C@@H]2CCCN2C1=O` [compound 167] (H-DCLGFMRKCIPDNDKCCRPNLVCSRTHKWCK[1Nal]VF-NH2; disulfide 2-17, 9-23, 16-30) showed an IC50 (Table 25, IonWorks Quattro, use, […]) of 0.004 µM.
`CSCC[C@@H]1NC(=O)[C@H](Cc2ccccc2)NC(=O)CNC(=O)[C@H](CC(C)C)NC(=O)[C@@H](NC(=O)[C@@H](N)CC(=O)O)CSSC[C@@H]2NC(=O)[C@@H]3CSSC[C@@H](C(=O)N[C@@H](CCCCN)C(=O)N[C@@H](Cc4ccc(O)cc4)C(=O)N[C@H](C(=O)N[C@@H](Cc4ccccc4)C(N)=O)C(C)C)NC(=O)[C@H](Cc4c[nH]c5ccccc45)NC(=O)[C@H](CCCCN)NC(=O)[C@H](Cc4c[nH]cn4)NC(=O)[C@H]([C@@H](C)O)NC(=O)[C@H](CCCNC(=N)N)NC(=O)[C@H](CO)NC(=O)[C@H](CSSC[C@H](NC(=O)[C@H](CCCCN)NC(=O)[C@H](CCCNC(=N)N)NC1=O)C(=O)N[C@@H](Cc1ccc(O)cc1)C(=O)N1CCC[C@H]1C(=O)N[C@@H](CC(=O)O)C(=O)N[C@@H](CC(N)=O)C(=O)N[C@@H](CC(=O)O)C(=O)N[C@@H](CCCCN)C(=O)N3)NC(=O)[C@H](C(C)C)NC(=O)[C@H](CC(C)C)NC(=O)[C@H](CC(N)=O)NC(=O)[C@@H]1CCCN1C(=O)[C@H](CCCNC(=N)N)NC2=O` [compound 299] (H-DCLGFMRKCYPDNDKCCRPNLVCSRTHKWCKYVF-NH2; disulfide 2-17, 9-23, 16-30) showed an IC50 (IonWorks Quattro, Use) of 0.14 µM.
`CSCC[C@@H]1NC(=O)[C@H](Cc2ccccc2)NC(=O)CNC(=O)[C@H](CC(C)C)NC(=O)[C@@H](NC(=O)[C@@H](N)CC(=O)O)CSSC[C@@H]2NC(=O)[C@@H]3CSSC[C@@H](C(=O)N[C@@H](CCCCN)C(=O)N[C@@H](Cc4ccc(O)cc4)C(=O)N[C@H](C(=O)N[C@@H](Cc4ccccc4)C(N)=O)C(C)C)NC(=O)[C@H](Cc4c[nH]c5ccccc45)NC(=O)[C@H](CCCCN)NC(=O)[C@H](Cc4c[nH]cn4)NC(=O)[C@H]([C@@H](C)O)NC(=O)[C@H](CCCNC(=N)N)NC(=O)[C@H](CO)NC(=O)[C@H](CSSC[C@H](NC(=O)[C@H](CCCCN)NC(=O)[C@H](CCCNC(=N)N)NC1=O)C(=O)N[C@@H](C(C)C)C(=O)N1CCC[C@H]1C(=O)N[C@@H](CC(=O)O)C(=O)N[C@@H](CC(N)=O)C(=O)N[C@@H](CC(=O)O)C(=O)N[C@@H](CCCCN)C(=O)N3)NC(=O)[C@H](C(C)C)NC(=O)[C@H](CC(C)C)NC(=O)[C@H](CC(N)=O)NC(=O)[C@@H]1CCCN1C(=O)[C@H](CCCNC(=N)N)NC2=O` [compound 301] (H-DCLGFMRKCVPDNDKCCRPNLVCSRTHKWCKYVF-NH2; disulfide 2-17, 9-23, 16-30) showed an IC50 (IonWorks Quattro, Use) of 0.1 µM.
`CSCC[C@@H]1NC(=O)[C@H](Cc2ccccc2)NC(=O)CNC(=O)[C@H](CC(C)C)NC(=O)[C@@H](NC(=O)[C@@H](N)CC(=O)O)CSSC[C@@H]2NC(=O)[C@@H]3CSSC[C@@H](C(=O)N[C@@H](CCCCN)C(=O)N[C@@H](Cc4ccc(O)cc4)C(=O)N[C@H](C(=O)N[C@@H](Cc4ccccc4)C(N)=O)C(C)C)NC(=O)[C@H](Cc4c[nH]c5ccccc45)NC(=O)[C@H](CCCCN)NC(=O)[C@H](Cc4c[nH]cn4)NC(=O)[C@H]([C@@H](C)O)NC(=O)[C@H](CCCNC(=N)N)NC(=O)[C@H](CO)NC(=O)[C@H](CSSC[C@H](NC(=O)[C@H](CCCCN)NC(=O)[C@H](CCCNC(=N)N)NC1=O)C(=O)N[C@@H](Cc1ccccc1)C(=O)N1CCC[C@H]1C(=O)N[C@@H](CC(=O)O)C(=O)N[C@@H](CC(N)=O)C(=O)N[C@@H](CC(=O)O)C(=O)N[C@@H](CCCCN)C(=O)N3)NC(=O)[C@H](C(C)C)NC(=O)[C@H](CC(C)C)NC(=O)[C@H](CC(N)=O)NC(=O)[C@@H]1CCCN1C(=O)[C@H](CCCNC(=N)N)NC2=O` [compound 302] (H-DCLGFMRKCFPDNDKCCRPNLVCSRTHKWCKYVF-NH2; disulfide 2-17, 9-23, 16-30) was tested, and the IC50 (IonWorks Quattro, Use) was 0.11 µM.
`CSCC[C@@H]1NC(=O)[C@H](Cc2ccccc2)NC(=O)CNC(=O)[C@H](CC(C)C)NC(=O)[C@@H](NC(=O)[C@@H](N)CC(=O)O)CSSC[C@@H]2NC(=O)[C@@H]3CSSC[C@@H](C(=O)N[C@@H](CCCCN)C(=O)N[C@@H](Cc4ccc(O)cc4)C(=O)N[C@H](C(=O)N[C@@H](Cc4ccccc4)C(N)=O)C(C)C)NC(=O)[C@H](Cc4c[nH]c5ccccc45)NC(=O)[C@H](CCCCN)NC(=O)[C@H](Cc4c[nH]cn4)NC(=O)[C@H]([C@@H](C)O)NC(=O)[C@H](CCCNC(=N)N)NC(=O)[C@H](CO)NC(=O)[C@H](CSSC[C@H](NC(=O)[C@H](CCCCN)NC(=O)[C@H](CCCNC(=N)N)NC1=O)C(=O)N[C@@H](Cc1c[nH]cn1)C(=O)N1CCC[C@H]1C(=O)N[C@@H](CC(=O)O)C(=O)N[C@@H](CC(N)=O)C(=O)N[C@@H](CC(=O)O)C(=O)N[C@@H](CCCCN)C(=O)N3)NC(=O)[C@H](C(C)C)NC(=O)[C@H](CC(C)C)NC(=O)[C@H](CC(N)=O)NC(=O)[C@@H]1CCCN1C(=O)[C@H](CCCNC(=N)N)NC2=O` [compound 304] (H-DCLGFMRKCHPDNDKCCRPNLVCSRTHKWCKYVF-NH2; disulfide 2-17, 9-23, 16-30) was tested, and the IC50 (IonWorks Quattro, Use) was 0.05 µM.
